# Experimental data reported in article PMC11571108, “Targeting PfCLK3 with Covalent Inhibitors: A Novel Strategy for Malaria Treatment” (Journal of Medicinal Chemistry, 2024).
# Experiments:
# Assay in all cases: biochemical
# PKG1α(h) = PKG1α(h) (Homo sapiens, UniProt Q13976)
# Description: (§1) Compounds were evaluated using Eurofins Discovery’s KinaseProfiler Diversity Panel of 58 representative kinases. KinaseProfiler is a radiometric assay using [γ-^33P]-ATP to measure the phosphorylation of individual kinase substrates. A representative protocol for Abl is given below. Further details can be found by visiting the Eurofins Discovery Web site.
# (§2) The reaction is initiated by the addition of the Mg/ATP mix. After incubation for 40 min at room temperature, the reaction is stopped by the addition of phosphoric acid to a concentration of 0.5%.
# SRPK1(h) = SRPK1(h) (Homo sapiens, UniProt Q96SB4)
# Description: as §1, §2
# PKCα(h) = PKCα(h) (Homo sapiens, UniProt P17252)
# Description: as §1, §2
# ROCK-I(h) = ROCK-I(h) (Homo sapiens, UniProt Q13464)
# Description: as §1, §2
# Fyn(h) = Fyn(h) (Homo sapiens, UniProt P06241)
# Description: as §1, §2
# MSK2(h) = MSK2(h) (Homo sapiens, UniProt O75676)
# Description: as §1, §2
# Pim-1(h) = Pim-1(h) (Homo sapiens, UniProt P11309)
# Description: as §1, §2
# MEK1(h) = MEK1(h) (Homo sapiens, UniProt Q02750)
# Description: as §1, §2
# IGF-1R(h) = IGF-1R(h) (Homo sapiens, UniProt P08069)
# Description: as §1, §2
# PKA(h) = PKA(h) (Homo sapiens, UniProt P17612)
# Description: as §1, §2
# Rse(h) = Rse(h) (Homo sapiens, UniProt Q06418)
# Description: as §1, §2
# SAPK2a(h) = SAPK2a(h) (Homo sapiens, UniProt Q16539)
# Description: as §1, §2
# KDR(h) = KDR(h) (Homo sapiens, UniProt P35968)
# Description: as §1, §2
# PAK2(h) = PAK2(h) (Homo sapiens, UniProt Q13177)
# Description: as §1, §2
# PI3 Kinase (p120g)(h) = PI3 Kinase (p120g)(h) (Homo sapiens, UniProt P48736)
# Description: as §1, §2
# TAK1(h) = TAK1(h) (Homo sapiens, UniProt O43318)
# Description: as §1, §2
# PRAK(h) = PRAK(h) (Homo sapiens, UniProt Q8IW41)
# Description: as §1, §2
# mTOR(h) = mTOR(h) (Homo sapiens, UniProt P42345)
# Description: as §1, §2
# eEF-2K(h) = eEF-2K(h) (Homo sapiens, UniProt O00418)
# Description: as §1, §2
# JAK2(h) = JAK2(h) (Homo sapiens, UniProt O60674)
# Description: as §1, §2
# EphB4(h) = EphB4(h) (Homo sapiens, UniProt P54760)
# Description: as §1, §2
# PKBα(h) = PKBα(h) (Homo sapiens, UniProt P31749)
# Description: as §1, §2
# NEK2(h) = NEK2(h) (Homo sapiens, UniProt P51955)
# Description: as §1, §2
# EGFR(h) = EGFR(h) (Homo sapiens, UniProt P00533)
# Description: as §1, §2
# Mnk2(h) = Mnk2(h) (Homo sapiens, UniProt Q9HBH9)
# Description: as §1, §2
# PKCθ(h) = PKCθ(h) (Homo sapiens, UniProt Q04759)
# Description: as §1, §2
# PDGFRβ(h) = PDGFRβ(h) (Homo sapiens, UniProt P09619)
# Description: as §1, §2
# MAPKAP-K2(h) = MAPKAP-K2(h) (Homo sapiens, UniProt P49137)
# Description: as §1, §2
# LOK(h) = LOK(h) (Homo sapiens, UniProt O94804)
# Description: as §1, §2
# IRAK4(h) = IRAK4(h) (Homo sapiens, UniProt Q9NWZ3)
# Description: as §1, §2
# MLK1(h) = MLK1(h) (Homo sapiens, UniProt P80192)
# Description: as §1, §2
# Lyn(h) = Lyn(h) (Homo sapiens, UniProt P07948)
# Description: as §1, §2
# EphA5(h) = EphA5(h) (Homo sapiens, UniProt P54756)
# Description: as §1, §2
# IKKα(h) = IKKα(h) (Homo sapiens, UniProt O15111)
# Description: as §1, §2
# MST1(h) = MST1(h) (Homo sapiens, UniProt Q13043)
# Description: as §1, §2
# Plk3(h) = Plk3(h) (Homo sapiens, UniProt Q9H4B4)
# Description: as §1, §2
# Rsk1(h) = Rsk1(h) (Homo sapiens, UniProt Q15418)
# Description: as §1, §2
# p70S6K(h) = p70S6K(h) (Homo sapiens, UniProt P23443)
# Description: as §1, §2
# Aurora-A(h) = Aurora-A(h) (Homo sapiens, UniProt O14965)
# c-RAF(h) = c-RAF(h) (Homo sapiens, UniProt P04049)
# CK1γ1(h) = CK1γ1(h) (Homo sapiens, UniProt Q9HCP0)
# Chain of c-RAF(h) (P04049 whole entry): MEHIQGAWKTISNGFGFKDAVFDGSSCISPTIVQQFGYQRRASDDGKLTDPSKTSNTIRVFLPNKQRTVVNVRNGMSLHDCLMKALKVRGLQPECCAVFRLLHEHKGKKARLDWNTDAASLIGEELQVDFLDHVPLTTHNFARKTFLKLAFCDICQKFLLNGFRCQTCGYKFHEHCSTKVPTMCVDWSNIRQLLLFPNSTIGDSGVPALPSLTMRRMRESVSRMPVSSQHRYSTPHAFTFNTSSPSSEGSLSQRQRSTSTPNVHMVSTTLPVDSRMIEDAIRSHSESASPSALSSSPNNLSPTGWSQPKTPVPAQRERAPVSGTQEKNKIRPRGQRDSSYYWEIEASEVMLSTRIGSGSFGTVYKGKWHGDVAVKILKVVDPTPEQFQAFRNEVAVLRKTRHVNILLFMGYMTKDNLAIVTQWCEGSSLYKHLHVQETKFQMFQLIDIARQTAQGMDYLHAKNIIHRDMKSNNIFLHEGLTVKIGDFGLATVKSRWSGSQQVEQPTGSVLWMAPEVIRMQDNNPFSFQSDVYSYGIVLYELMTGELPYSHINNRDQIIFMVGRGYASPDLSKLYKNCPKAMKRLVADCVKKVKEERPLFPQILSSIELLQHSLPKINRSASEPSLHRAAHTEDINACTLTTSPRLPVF
# Chain of Lyn(h) (P07948 whole entry): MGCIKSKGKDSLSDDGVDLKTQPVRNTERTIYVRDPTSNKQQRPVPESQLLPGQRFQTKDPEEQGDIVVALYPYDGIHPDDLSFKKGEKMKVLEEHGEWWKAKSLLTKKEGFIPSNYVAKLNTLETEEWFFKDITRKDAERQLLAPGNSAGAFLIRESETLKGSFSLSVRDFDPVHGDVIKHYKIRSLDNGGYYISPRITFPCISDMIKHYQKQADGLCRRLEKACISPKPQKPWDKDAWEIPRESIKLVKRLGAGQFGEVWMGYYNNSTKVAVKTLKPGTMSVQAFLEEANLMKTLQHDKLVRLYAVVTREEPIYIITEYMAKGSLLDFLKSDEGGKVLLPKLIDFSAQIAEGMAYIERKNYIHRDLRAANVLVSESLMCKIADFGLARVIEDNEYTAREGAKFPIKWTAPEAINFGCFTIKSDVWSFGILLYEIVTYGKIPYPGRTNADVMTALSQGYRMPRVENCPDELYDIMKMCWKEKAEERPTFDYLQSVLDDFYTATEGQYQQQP
# Chain of NEK2(h) (P51955 whole entry): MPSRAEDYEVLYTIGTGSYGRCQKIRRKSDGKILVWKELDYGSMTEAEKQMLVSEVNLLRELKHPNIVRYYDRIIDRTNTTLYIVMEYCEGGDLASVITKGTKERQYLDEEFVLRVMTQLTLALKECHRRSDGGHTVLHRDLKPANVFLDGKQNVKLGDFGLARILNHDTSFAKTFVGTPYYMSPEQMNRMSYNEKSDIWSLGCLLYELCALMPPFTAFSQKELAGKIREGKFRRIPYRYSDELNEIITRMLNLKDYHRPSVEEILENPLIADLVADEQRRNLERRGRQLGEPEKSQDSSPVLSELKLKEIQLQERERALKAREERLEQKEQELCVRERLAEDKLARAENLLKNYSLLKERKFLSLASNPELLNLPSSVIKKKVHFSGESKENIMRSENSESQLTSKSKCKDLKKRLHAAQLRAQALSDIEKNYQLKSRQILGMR
# Chain of MAPKAP-K2(h) (P49137 whole entry): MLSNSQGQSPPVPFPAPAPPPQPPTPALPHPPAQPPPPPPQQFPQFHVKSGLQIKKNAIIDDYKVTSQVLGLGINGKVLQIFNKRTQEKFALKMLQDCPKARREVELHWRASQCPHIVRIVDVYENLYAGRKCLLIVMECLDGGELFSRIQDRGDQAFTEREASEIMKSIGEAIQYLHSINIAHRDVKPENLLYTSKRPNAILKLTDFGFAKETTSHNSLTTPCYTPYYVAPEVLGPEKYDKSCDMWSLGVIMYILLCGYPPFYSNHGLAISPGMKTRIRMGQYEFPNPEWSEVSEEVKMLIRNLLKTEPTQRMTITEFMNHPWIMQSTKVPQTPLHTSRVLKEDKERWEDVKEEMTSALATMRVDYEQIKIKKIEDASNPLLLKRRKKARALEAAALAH
# Chain of KDR(h) (P35968 20-1356): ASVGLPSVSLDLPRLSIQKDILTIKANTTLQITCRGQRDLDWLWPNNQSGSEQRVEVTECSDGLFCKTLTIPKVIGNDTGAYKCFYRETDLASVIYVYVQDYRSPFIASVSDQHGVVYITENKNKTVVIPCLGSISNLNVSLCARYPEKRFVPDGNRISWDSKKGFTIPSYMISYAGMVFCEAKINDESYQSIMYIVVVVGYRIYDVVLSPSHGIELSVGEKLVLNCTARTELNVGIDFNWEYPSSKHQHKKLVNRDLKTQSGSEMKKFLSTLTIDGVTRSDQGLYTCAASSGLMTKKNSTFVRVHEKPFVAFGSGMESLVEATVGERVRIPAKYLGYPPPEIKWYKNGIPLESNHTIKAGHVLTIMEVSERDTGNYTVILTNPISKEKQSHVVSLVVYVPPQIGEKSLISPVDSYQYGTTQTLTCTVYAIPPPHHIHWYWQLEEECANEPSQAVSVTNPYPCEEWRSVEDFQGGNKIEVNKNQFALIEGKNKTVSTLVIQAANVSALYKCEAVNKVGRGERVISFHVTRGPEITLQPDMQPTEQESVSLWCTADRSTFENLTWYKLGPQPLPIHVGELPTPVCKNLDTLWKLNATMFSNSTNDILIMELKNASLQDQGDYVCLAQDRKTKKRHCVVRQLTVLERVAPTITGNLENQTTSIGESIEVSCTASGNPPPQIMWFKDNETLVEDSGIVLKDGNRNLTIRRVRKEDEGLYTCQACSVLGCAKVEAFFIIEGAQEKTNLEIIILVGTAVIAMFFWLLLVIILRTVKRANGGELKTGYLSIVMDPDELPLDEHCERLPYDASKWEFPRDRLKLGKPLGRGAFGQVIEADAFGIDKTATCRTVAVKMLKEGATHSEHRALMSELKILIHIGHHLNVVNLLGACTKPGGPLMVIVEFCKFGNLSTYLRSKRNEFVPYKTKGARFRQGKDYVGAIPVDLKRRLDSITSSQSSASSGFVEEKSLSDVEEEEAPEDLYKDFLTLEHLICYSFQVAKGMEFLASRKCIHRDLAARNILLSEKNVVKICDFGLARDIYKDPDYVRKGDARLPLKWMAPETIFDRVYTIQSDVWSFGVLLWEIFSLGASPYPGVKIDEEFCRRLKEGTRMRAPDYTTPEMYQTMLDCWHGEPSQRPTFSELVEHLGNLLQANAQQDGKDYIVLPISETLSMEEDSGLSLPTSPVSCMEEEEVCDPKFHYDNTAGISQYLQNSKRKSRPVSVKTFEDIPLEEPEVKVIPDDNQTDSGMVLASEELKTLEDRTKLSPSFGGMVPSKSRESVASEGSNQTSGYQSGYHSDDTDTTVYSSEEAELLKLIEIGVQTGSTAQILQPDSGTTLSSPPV
# Chain of MLK1(h) (P80192 whole entry): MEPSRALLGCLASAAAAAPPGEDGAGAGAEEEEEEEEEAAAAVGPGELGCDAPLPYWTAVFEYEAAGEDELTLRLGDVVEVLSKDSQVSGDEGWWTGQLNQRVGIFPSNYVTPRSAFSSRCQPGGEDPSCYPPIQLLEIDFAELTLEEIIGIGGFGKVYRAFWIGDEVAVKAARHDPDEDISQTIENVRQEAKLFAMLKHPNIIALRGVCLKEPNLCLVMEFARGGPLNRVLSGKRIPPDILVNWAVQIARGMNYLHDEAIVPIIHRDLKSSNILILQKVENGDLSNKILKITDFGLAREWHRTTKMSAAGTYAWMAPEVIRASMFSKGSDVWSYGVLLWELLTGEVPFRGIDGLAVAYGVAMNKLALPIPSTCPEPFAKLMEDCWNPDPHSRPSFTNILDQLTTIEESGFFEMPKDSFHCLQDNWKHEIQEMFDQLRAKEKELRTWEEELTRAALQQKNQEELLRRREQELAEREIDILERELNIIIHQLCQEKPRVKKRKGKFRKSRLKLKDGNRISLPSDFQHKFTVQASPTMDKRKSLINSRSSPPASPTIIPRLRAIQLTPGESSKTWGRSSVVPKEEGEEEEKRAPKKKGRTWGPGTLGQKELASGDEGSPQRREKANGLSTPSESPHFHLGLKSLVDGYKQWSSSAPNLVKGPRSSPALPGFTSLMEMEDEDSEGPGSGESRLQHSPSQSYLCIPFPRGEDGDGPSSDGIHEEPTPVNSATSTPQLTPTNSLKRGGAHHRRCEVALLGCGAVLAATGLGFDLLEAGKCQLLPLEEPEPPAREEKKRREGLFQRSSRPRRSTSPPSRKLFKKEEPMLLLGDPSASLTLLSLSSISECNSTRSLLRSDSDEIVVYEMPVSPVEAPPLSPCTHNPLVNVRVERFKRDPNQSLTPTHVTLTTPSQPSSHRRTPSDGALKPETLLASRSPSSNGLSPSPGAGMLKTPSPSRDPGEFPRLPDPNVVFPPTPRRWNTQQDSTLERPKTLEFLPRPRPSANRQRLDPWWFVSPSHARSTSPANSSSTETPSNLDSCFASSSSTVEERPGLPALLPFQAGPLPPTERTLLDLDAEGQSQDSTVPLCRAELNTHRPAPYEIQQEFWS
# Chain of Mnk2(h) (Q9HBH9 whole entry): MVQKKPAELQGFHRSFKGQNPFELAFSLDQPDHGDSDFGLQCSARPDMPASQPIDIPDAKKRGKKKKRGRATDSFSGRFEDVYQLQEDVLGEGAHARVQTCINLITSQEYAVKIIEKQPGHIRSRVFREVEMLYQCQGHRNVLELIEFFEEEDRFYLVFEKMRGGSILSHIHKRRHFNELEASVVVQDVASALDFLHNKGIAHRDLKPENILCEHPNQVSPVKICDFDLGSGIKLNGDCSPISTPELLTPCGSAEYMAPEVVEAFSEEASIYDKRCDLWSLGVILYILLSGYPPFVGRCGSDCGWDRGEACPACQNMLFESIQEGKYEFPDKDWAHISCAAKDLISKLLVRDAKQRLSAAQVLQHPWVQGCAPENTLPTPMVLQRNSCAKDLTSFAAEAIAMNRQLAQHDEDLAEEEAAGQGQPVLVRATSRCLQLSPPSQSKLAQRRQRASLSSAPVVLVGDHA
smiles,measurement,setting,value
"CCN(CC)Cc1ccc(OC)c(-c2cc3c(-c4ccc(C(=O)O)c(C(C)C)c4)ccnc3[nH]2)c1 [Compound 1, TCMDC-135051]",remaining activity at 1 µM,PKG1α(h),105%
same,remaining activity at 1 µM,SRPK1(h),105%
same,remaining activity at 1 µM,PKCα(h),73%
same,remaining activity at 1 µM,ROCK-I(h),117%
same,remaining activity at 1 µM,Fyn(h),49%
same,remaining activity at 1 µM,MSK2(h),100%
same,remaining activity at 1 µM,Pim-1(h),101%
same,remaining activity at 1 µM,MEK1(h),100%
same,remaining activity at 1 µM,IGF-1R(h),94%
same,remaining activity at 1 µM,PKA(h),101%
same,remaining activity at 1 µM,Rse(h),109%
same,remaining activity at 1 µM,SAPK2a(h),105%
same,remaining activity at 1 µM,KDR(h),61%
same,remaining activity at 1 µM,PAK2(h),110%
same,remaining activity at 1 µM,PI3 Kinase (p120g)(h),96%
same,remaining activity at 1 µM,TAK1(h),45%
same,remaining activity at 1 µM,PRAK(h),74%
same,remaining activity at 1 µM,mTOR(h),100%
same,remaining activity at 1 µM,eEF-2K(h),100%
same,remaining activity at 1 µM,JAK2(h),20%
same,remaining activity at 1 µM,EphB4(h),104%
same,remaining activity at 1 µM,PKBα(h),106%
same,remaining activity at 1 µM,NEK2(h),105%
same,remaining activity at 1 µM,EGFR(h),95%
same,remaining activity at 1 µM,Mnk2(h),38%
same,remaining activity at 1 µM,PKCθ(h),108%
same,remaining activity at 1 µM,PDGFRβ(h),94%
same,remaining activity at 1 µM,MAPKAP-K2(h),94%
same,remaining activity at 1 µM,LOK(h),37%
same,remaining activity at 1 µM,IRAK4(h),27%
same,remaining activity at 1 µM,MLK1(h),92%
same,remaining activity at 1 µM,Lyn(h),28%
same,remaining activity at 1 µM,EphA5(h),97%
same,remaining activity at 1 µM,IKKα(h),93%
same,remaining activity at 1 µM,MST1(h),84%
same,remaining activity at 1 µM,Plk3(h),100%
same,remaining activity at 1 µM,Rsk1(h),105%
same,remaining activity at 1 µM,p70S6K(h),100%
same,remaining activity at 1 µM,Aurora-A(h),11%
same,remaining activity at 1 µM,c-RAF(h),106%
same,remaining activity at 1 µM,CK1γ1(h),85%
